Measured values as given in patent US8822503B2, “2-pyridone compounds” (Taisho Pharmaceutical Co., Ltd, priority 2009, dated 2014).

target: T1, human liver GK (Homo sapiens, UniProt P35557); assay: GK activation test; assay type: biochemical; settings: test compound concentration needed to activate 50% of maximum activation ability; 4 mM 14C-labeled glucose, 2 mM ATP, room temperature, 20 minutes
T1 construct: GST (glutathione S-transferase) (N); made in house; host or cells: E. coli
T1 sequence (P35557 1-466 isoform P35557-2): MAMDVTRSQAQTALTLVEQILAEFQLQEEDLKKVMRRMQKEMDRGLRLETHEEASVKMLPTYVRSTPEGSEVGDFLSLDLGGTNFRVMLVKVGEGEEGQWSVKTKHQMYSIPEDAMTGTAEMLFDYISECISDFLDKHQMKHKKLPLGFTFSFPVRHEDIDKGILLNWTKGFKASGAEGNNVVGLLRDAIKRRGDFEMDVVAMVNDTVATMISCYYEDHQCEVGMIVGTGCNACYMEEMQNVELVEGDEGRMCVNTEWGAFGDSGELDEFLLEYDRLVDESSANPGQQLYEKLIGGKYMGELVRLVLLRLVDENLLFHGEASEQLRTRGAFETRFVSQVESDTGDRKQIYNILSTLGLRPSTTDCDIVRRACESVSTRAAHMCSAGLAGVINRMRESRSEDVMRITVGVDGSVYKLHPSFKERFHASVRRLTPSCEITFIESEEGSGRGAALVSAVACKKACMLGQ
Summary of the method: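 GST-tagged human liver GK from E. coli (0.24 μg/well) with 4 mM 14C-glucose, 2 mM ATP in Hepes-KOH pH 7.1, KCl, MgCl2, DTT, 1% DMSO, 20 min room temperature. Labeled glucose 6-phosphate captured on anion resin, eluted and counted. EC50 = concentration giving half of maximal activation.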

Structure (SMILES) | EC50 [µM]
Cc1ccc(C(CC2CCOCC2)c2ccc(S(C)(=O)=O)cc2)[nH]c1=O (centres unmarked) [Example 2-19, 3-Methyl-6-{1-[4-(methylsulfonyl)phenyl]-2-(tetrahydro-2H-pyran-4-yl)ethyl}pyridin-2(1H)-one] | 3 to 10
CSc1ccc(C(CC2CCC(=O)CC2)c2ccc(C)c(=O)[nH]2)cc1 (centres unmarked) [Example 2-20, 3-Methyl-6-{1-[4-(methylsulfanyl)phenyl]-2-(4-oxocyclohexyl)ethyl}pyridin-2(1H)-one] | 0.5 to 3
Cc1ccc(C(CC2CCC(=O)CC2)c2ccc(S(C)(=O)=O)cc2)[nH]c1=O (centres unmarked) [Example 2-21, 3-Methyl-6-{1-[4-(methylsulfonyl)phenyl]-2-(4-oxocyclohexyl)ethyl}pyridin-2(1H)-one] | 3 to 10
CSc1ccc(C(C[C@H]2CCC(=O)C2)c2ccc(C)c(=O)[nH]2)cc1 (stereo partly drawn) [Example 2-22, 3-Methyl-6-{1-[4-(methylsulfanyl)phenyl]-2-[(1R)-3-oxocyclopentyl]ethyl}pyridin-2(1H)-one] | 0.5 to 3
Cc1ccc(C(C[C@H]2CCC(=O)C2)c2ccc(S(C)(=O)=O)cc2)[nH]c1=O (stereo partly drawn) [Example 2-23, 3-Methyl-6-{1-[4-(methylsulfonyl)phenyl]-2-[(1R)-3-oxocyclopentyl]ethyl}pyridin-2(1H)-one] | 3 to 10
CN1CCN(S(=O)(=O)c2ccc(C(CC3CCCC3)c3ccc(Cl)c(=O)[nH]3)cc2)CC1 (centres unmarked) [Example 2-24, 3-Chloro-6-(2-cyclopentyl-1-{4-[(4-methylpiperazin-1-yl)sulfonyl]phenyl}ethyl)pyridin-2(1H)-one] | 3 to 10
O=c1[nH]c(C(CC2CCCC2)c2ccc(S(=O)(=O)C3CC3)cc2)ccc1Cl (centres unmarked) [Example 2-25, 3-Chloro-6-{2-cyclopentyl-1-[4-(cyclopropylsulfonyl)phenyl]ethyl}pyridin-2(1H)-one] | 0.5 to 3
CSc1ccc(/C(=C\[C@H]2CCC(=O)N2)c2ccc(C3CC3)c(=O)[nH]2)cc1 [Example 4-1, 3-Cyclopropyl-6-{(E)-1-[4-(methylsulfanyl)phenyl]-2-[(2R)-5-oxopyrrolidin-2-yl]ethenyl}pyridin-2(1H)-one] | 0.01 to 0.5
CCOc1ccc(/C(=C\[C@H]2CCC(=O)N2)c2ccc(Cl)c(=O)[nH]2)cc1Cl [Example 4-2, 3-Chloro-6-{(E)-1-(3-chloro-4-ethoxyphenyl)-2-[(2R)-5-oxopyrrolidin-2-yl]ethenyl}pyridin-2(1H)-one] | 0.5 to 3
CCOc1ccc(C(C[C@H]2CCC(=O)N2)c2ccc(Cl)c(=O)[nH]2)cc1Cl (stereo partly drawn) [Example 4-3, 3-Chloro-6-{1-(3-chloro-4-ethoxyphenyl)-2-[(2R)-5-oxopyrrolidin-2-yl]ethyl}pyridin-2(1H)-one] | 0.5 to 3
Cc1ccc(/C(=C\[C@H]2CCC(=O)N2)c2ccc(C3CC3)c(=O)[nH]2)cc1 [Example 4-4, 3-Cyclopropyl-6-{(E)-1-(4-methylphenyl)-2-[(2R)-5-oxopyrrolidin-2-yl]ethenyl}pyridin-2(1H)-one] | 0.01 to 0.5
CCc1ccc(/C(=C\[C@H]2CCC(=O)N2)c2ccc(C3CC3)c(=O)[nH]2)cc1 [Example 4-5, 3-Cyclopropyl-6-{(E)-1-(4-ethylphenyl)-2-[(2R)-5-oxopyrrolidin-2-yl]ethenyl}pyridin-2(1H)-one] | 0.01 to 0.5
CCOc1ccc(/C(=C\[C@H]2CCC(=O)N2)c2ccc(C3CC3)c(=O)[nH]2)cc1 [Example 4-6, 3-Cyclopropyl-6-{(E)-1-(4-ethoxyphenyl)-2-[(2R)-5-oxopyrrolidin-2-yl]ethenyl}pyridin-2(1H)-one] | 0.01 to 0.5
CCOc1cccc(/C(=C\[C@H]2CCC(=O)N2)c2ccc(C3CC3)c(=O)[nH]2)c1 [Example 4-7, 3-Cyclopropyl-6-{(E)-1-(3-ethoxyphenyl)-2-[(2R)-5-oxopyrrolidin-2-yl]ethenyl}pyridin-2(1H)-one] | 0.5 to 3
O=C1CC[C@H](/C=C(\c2cccc(OCCCO)c2)c2ccc(C3CC3)c(=O)[nH]2)N1 [Example 4-8, 3-Cyclopropyl-6-{(E)-1-[3-(3-hydroxypropoxy)phenyl]-2-[(2R)-5-oxopyrrolidin-2-yl]ethenyl}pyridin-2(1H)-one] | 0.5 to 3
O=C1CC[C@H](/C=C(\c2cccc(OCCCCO)c2)c2ccc(C3CC3)c(=O)[nH]2)N1 [Example 4-9, 3-Cyclopropyl-6-{(E)-1-[3-(4-hydroxybutoxy)phenyl]-2-[(2R)-5-oxopyrrolidin-2-yl]ethenyl}pyridin-2(1H)-one] | 0.5 to 3
CCOc1ccc(/C(=C\[C@H]2CCC(=O)N2)c2ccc(C3CC3)c(=O)[nH]2)cc1Cl [Example 4-10, 6-{(E)-1-(3-Chloro-4-ethoxyphenyl)-2-[(2R)-5-oxopyrrolidin-2-yl]ethenyl}-3-cyclopropylpyridin-2(1H)-one] | 0.01 to 0.5
O=C1CC[C@H](/C=C(\c2ccc(OCCCCO)c(Cl)c2)c2ccc(C3CC3)c(=O)[nH]2)N1 [Example 4-11, 6-{(E)-1-[3-Chloro-4-(4-hydroxybutoxy)phenyl]-2-[(2R)-5-oxopyrrolidin-2-yl]ethenyl}-3-cyclopropylpyridin-2(1H)-one] | 0.01 to 0.5
Cc1cc(/C(=C\[C@H]2CCC(=O)N2)c2ccc(C3CC3)c(=O)[nH]2)ccc1SC1CC1 [Example 4-12, 3-Cyclopropyl-6-{(E)-1-[4-(cyclopropylsulfanyl)-3-methylphenyl]-2-[(2R)-5-oxopyrrolidin-2-yl]ethenyl}pyridin-2(1H)-one] | 0.01 to 0.5
O=C1CC[C@H](/C=C(\c2ccc(SC3CC3)c(Cl)c2)c2ccc(Cl)c(=O)[nH]2)N1 [Example 4-13, 3-Chloro-6-{(E)-1-[3-chloro-4-(cyclopropylsulfanyl)phenyl]-2-[(2R)-5-oxopyrrolidin-2-yl]ethenyl}pyridin-2(1H)-one] | 0.01 to 0.5
CCc1ccc(/C(=C\[C@H]2CCC(=O)N2)c2ccc(Cl)c(=O)[nH]2)cc1 [Example 4-14, 3-Chloro-6-{(E)-1-(4-ethylphenyl)-2-[(2R)-5-oxopyrrolidin-2-yl]ethenyl}pyridin-2(1H)-one] | 0.5 to 3
CC(C)CCOc1ccc(/C(=C\[C@H]2CCC(=O)N2)c2ccc(Cl)c(=O)[nH]2)cc1Cl [Example 4-20, 3-Chloro-6-{(E)-1-[3-chloro-4-(3-methylbutoxy)phenyl]-2-[(2R)-5-oxopyrrolidin-2-yl]ethenyl}pyridin-2(1H)-one] | 0.01 to 0.5

Further lines, results first:

EC50 [µM] | Structure (SMILES)
0.01 to 0.5 | CC(C)c1ccc(/C(=C\[C@H]2CCC(=O)N2)c2ccc(Cl)c(=O)[nH]2)cc1 [Example 4-15, 3-Chloro-6-{(E)-2-[(2R)-5-oxopyrrolidin-2-yl]-1-[4-(propan-2-yl)phenyl]ethenyl}pyridin-2(1H)-one]
0.5 to 3 | CCCc1ccc(/C(=C\[C@H]2CCC(=O)N2)c2ccc(Cl)c(=O)[nH]2)cc1 [Example 4-16, 3-Chloro-6-[(E)-2-[(2R)-5-oxopyrrolidin-2-yl]-1-(4-propylphenyl)ethenyl]pyridin-2(1H)-one]
0.01 to 0.5 | CCCCc1ccc(/C(=C\[C@H]2CCC(=O)N2)c2ccc(Cl)c(=O)[nH]2)cc1 [Example 4-17, 6-{(E)-1-(4-Butylphenyl)-2-[(2R)-5-oxopyrrolidin-2-yl]ethenyl}-3-chloropyridin-2(1H)-one]
0.01 to 0.5 | CC(C)(C)c1ccc(/C(=C\[C@H]2CCC(=O)N2)c2ccc(Cl)c(=O)[nH]2)cc1 [Example 4-18, 6-{(E)-1-(4-tert-Butylphenyl)-2-[(2R)-5-oxopyrrolidin-2-yl]ethenyl}-3-chloropyridin-2(1H)-one]
0.5 to 3 | O=C1CC[C@H](/C=C(\c2ccc(C(F)(F)F)cc2)c2ccc(Cl)c(=O)[nH]2)N1 [Example 4-19, 3-Chloro-6-{(E)-2-[(2R)-5-oxopyrrolidin-2-yl]-1-[4-(trifluoromethyl)phenyl]ethenyl}pyridin-2(1H)-one]
0.01 to 0.5 | CC(C)CCCOc1ccc(/C(=C\[C@H]2CCC(=O)N2)c2ccc(Cl)c(=O)[nH]2)cc1Cl [Example 4-21, 3-Chloro-6-{(E)-1-{3-chloro-4-[(4-methylpentyl)oxy]phenyl}-2-[(2R)-5-oxopyrrolidin-2-yl]ethenyl}pyridin-2(1H)-one]
0.01 to 0.5 | CC(C)COc1ccc(/C(=C\[C@H]2CCC(=O)N2)c2ccc(Cl)c(=O)[nH]2)cc1Cl [Example 4-22, 3-Chloro-6-{(E)-1-[3-chloro-4-(2-methylpropoxy)phenyl]-2-[(2R)-5-oxopyrrolidin-2-yl]ethenyl}pyridin-2(1H)-one]
0.5 to 3 | Cc1ccc(/C(=C\[C@H]2CCC(=O)N2)c2ccc(Cl)c(=O)[nH]2)cc1C [Example 4-23, 3-Chloro-6-{(E)-1-(3,4-dimethylphenyl)-2-[(2R)-5-oxopyrrolidin-2-yl]ethenyl}pyridin-2(1H)-one]
0.5 to 3 | Cc1ccc(/C(=C\[C@H]2CCC(=O)N2)c2ccc(Cl)c(=O)[nH]2)cc1Cl [Example 4-24, 3-Chloro-6-{(E)-1-(3-chloro-4-methylphenyl)-2-[(2R)-5-oxopyrrolidin-2-yl]ethenyl}pyridin-2(1H)-one]
0.5 to 3 | Cc1ccc(/C(=C\[C@H]2CCC(=O)N2)c2ccc(Cl)c(=O)[nH]2)cc1C(F)(F)F [Example 4-25, 3-Chloro-6-{(E)-1-[4-methyl-3-(trifluoromethyl)phenyl]-2-[(2R)-5-oxopyrrolidin-2-yl]ethenyl}pyridin-2(1H)-one]
